Patent US20060148829A1, “Means for inducing differentiation of supernumerary hair cells and deiters' cells in the developing organ of corti” (priority 2002, published 2006)
Starred links: 1 amine or outer side, 2 acyl side, 3 side chain; linkers in the order of their positions; H or OH if unused. Positions of bridges follow the written chain, without caps; N, C: chain ends. Non-standard residues stand in square brackets, D forms with d. Residues, ends and D or L forms follow the SMILES beside them. Chains are numbered I, II in the order given. Actinocin(9to1) = Cc1c2oc3c(C)ccc(C(=O)[*:1])c3nc-2c(C(=O)[*:2])c(N)c1=O; NMeV = CN[C@H](C(=O)O)C(C)C; Sar = CNCC(=O)O

Tests used:
[1] = test system: rat organ of Corti explants; assay: Induction of supernumerary hair cells (HCs) in cultured organ of Corti explants; conditions: for Induction of supernumerary HCs (in words): E19 rat organ of Corti explants, 5 days in culture; for Concentration inducing maximum supernumerary HCs differentiation: isolated organs of Corti, lowest concentration inducing maximum effect, for inactive compounds highest concentration tested 100 :M
From the text: Time-pregnant Sprague-Dawley rats or neonates were killed by euthanasia on gestational days 17 (E17), E19, or on postnatal days 0 (day of birth=P0), P2 and P4 with CO2. Both cochleae were dissected free from the calvaria with watchmaker forceps and under a stereomicroscope. Each organ of Corti was freed from surrounding tissues and explanted intact onto the surface of a sterile membrane (Mllicellm, 12 mm, Millipore, Bedford, Mass., USA) in minimum essential medium (MEM; Gibco, Gent, Belgium) into a 24-well culture plate (Nunc). Cultures were incubated at 37° C. in a humidified atmosphere of 95% air and 5% CO2. Medium was renewed every 2 days.
Organs of Corti were dissected from E19 rats and maintained in culture. […] For each condition, the explants were fixed and the supernumerary zones were counted after myosin VIIa immunostaining.
Quantitative analysis of supernumerary HCs production was obtained by counting the number of HCs per length and surface of sensory epithelium regions from the medium turn as previously described (5). If supernumerary cells were actually produced, the number of cells per unit of length should increase while the number of cells per surface unit should remain at the same level. […] The total length of each organ of Corti explant was measured and the extent of the region with supernumerary HCs was expressed as percent of total length. These supernumerary regions were defined by the presence of more than four rows of HCs.

[2] = test system: CDK1/cyclin B; conditions: Knockaert et al, 2002b; cited from earlier work
[3] = Administration to patients suffering of deafness; format: in vivo; conditions: regularly administered
[4] = test system: E19 explants of organ of Corti; assay: BrdU labelling of cell proliferation in organ of Corti explants; format: cell-based, rat
Procedure: Immunohistochemistry, immunocytochemistry and confocal microscopy were carried out as previously described (4;5). Whole-mount preparations or cryostat sections (10-20 :m) were fixed with either 4% paraformaldehyde (10 min. at 20° C.) or methanol (5 min. at −20° C.). Primary antibodies incubations were performed overnight at 4° C. Preparations were washed three times in PBS before incubating with a secondary antibody conjugated to alexa488, alexa568 or TRITC fluorophore for 1 hour at 20° C. Sequential double labeling experiments were done with a 4% paraformaldehyde fixation step in between each immunoreaction. Preparations were mounted on microscope slides and coverslipped with Fluoprep mounting medium (BioMérieux, Marcy l'Etoile, France) and imaged using a Bio-Rad MRC1024 laser scanning confocal microscope. To label cells in S phase in vitro, BrdU (10 :M, Sigma, USA) which is incorporated into replicating DNA, was added to the cultures for 2 or 5DIV prior staining.

[5] = test system: mouse organs of Corti (Math1 genotypes); assay: Roscovitine-induced HCs in organs of Corti of wild type, Math1-null and heterozygote mice; format: cell-based; conditions: 5DIV
Procedure: Math1 knockout mice were generated by replacing the Math1 open reading frame (ORF) with the selectable marker PGKhprt as previously described by Ben-Arie et al.(l). Math1^∃^gal/^∃^-gal knock-in mice were generated by replacing the Math1 ORF with a ∃-galactosidase (∃-gal) reporter gene so that ∃-gal is expressed in all cells that express Math1 (2).
Whole-mount lacZ staining was carried out on cultured E15.5 organ of Corti explants as previously described (2;3). After 5DIV, explants were fixed in 4% paraformaldehyde for 20 minutes, washed thoroughly in PBS and equilibrate in X-gal staining buffer (5 mM potassium ferricyanide, 5 mM potassium ferrocyanide, 0.02% NP40, and 0.01% sodium deoxycholate). Explants were stained overnight in X-gal buffer with X-gal (1 mg/ml) then post-fixed in 4% paraformaldehyde. Genotyping of tail DNA was performed using Southern analysis of EcoRI digested DNA and probes as previously described (1).

[6] = test system: E19 rat organ of Corti explants; assay: TUNEL labelling of apoptosis in organ of Corti explants; format: cell-based; conditions: 10 :M, after 1, 2 or 5 DIV
From the text: The apoptosis in E19 rat organ of Corti explants was looked for by staining the specimens cultured for 1, 2 or 5DIV with the terminal deoxynudeotidyl transferase-mediated dUTP nick-end labelling (TUNEL) method using the ApopTag fluorescent detection kit (Oncor, Gaitherburg, Md.) as previously described (6).

With `Cn1cnc2nc(NCCO)nc(NCc3ccccc3)c21` [iso-olomoucine] the “Induction of supernumerary HCs (in words)” value (“Induction … (in words)” below) [1] was “no effect” and the “Concentration inducing maximum supernumerary HCs differentiation” value [1] was “no effect”.

In the case of `N#CC(=C(/N)Sc1ccccc1N)/C(C#N)=C(\N)Sc1ccccc1N` [U0126], the “Induction … (in words)” value [1] is given as “did not induce supernumerary HCs”, the “Concentration inducing maximum supernumerary HCs differentiation” value [1] is given as “no effect” and the “CDK1 inhibition (IC50)” value [2] is given as “no effect”.

In the case of `CC[C@H](CO)Nc1nc(NCc2ccccc2)c2ncn(C(C)C)c2n1` [roscovitine], the “Clinical effect in patients suffering of deafness” value [3] is reported as “An improvement of their troubles was observed”, the “Tolerability in patients suffering of deafness” value [3] is reported as “without any drawbacks” and the “Rate of proliferation of mesenchymal cells in connective tissue” value ([4]; E19 explants, BrdU) is reported as “higher in the absence of roscovitine”. For the same compound, the “BrdU labelling of epithelial cells in the area of HCs and SCs” value ([4]; roscovitine-treated E19 explants, 10 :M BrdU, 2 or 5 DIV) was “No epithelial cells were labeled with BrdU”, the “Myosin VIIA positive supernumerary HCs, wild type mice” value ([5]; E15 or E18 wild type mice) was “myosin VIIA immunopositive supernumerary HCs, (FIG. 9A) were observed” and the “Supernumerary HCs, Math1 heterozygote mice” value ([5]; E15.5 Math1 +/beta-gal organs of Corti, 10 :M) was “supernumerary HCs were present”. The “Myosin VIIA staining, Math1-null mutant mice” value ([5]; E15.5 Math1-null cochlea) was “absent”, the “Developmental stage dependence of induction of supernumerary HCs” value ([1]; 10 :M, 5 days of culture, stages E17 to P4) was “culminated at E17, sightly decreased at E19 and disappeared at P0” and the “Toxicity for cells in the organ of Corti” value ([1]; 30 and 100 :M) was “toxic for all cells in the organ of Corti”. The “Time in culture for maximal effect on length of supernumerary zones” value ([1]; E19 rat explants, 10 :M) was 5 DIV, the “Supernumerary segments as percent of the total length of the explants” value ([1]; E19 rat explants, 10 :M, 5DIV, mean, S.D., n=4 independent experiments) was 52.9% and the “Time in culture for effect on length of supernumerary zones” value ([1]; E19 rat explants, 10 :M, significant effect) was 4 DIV. The “Induction … (in words)” value [1] was “higher number of supernumerary HCs and corresponding SCs”, the “Concentration inducing maximum supernumerary HCs differentiation” value [1] was 10 :M and the “Density of HCs per surface unit vs control explants” value ([1]; roscovitine-treated explants) was “remained identical to that of control explants”. For the same compound, the TUNEL positive nuclei [6] was “no TUNEL positive nuclei were identified”.

For indirubin-3′-monoxime, the “Induction … (in words)” value [1] was “induced the appearance of supernumerary HCs” and the “Concentration inducing maximum supernumerary HCs differentiation” value [1] was 10 :M.

In the case of `O=C1c2ccccc2-[n+]2ccc3c([nH]c4ccccc43)c21` [fascaplysin], the “Induction … (in words)” value [1] is given as “no effect”, the “Concentration inducing maximum supernumerary HCs differentiation” value [1] is given as “no effect” and the “CDK1 inhibition (IC50)” value [2] is given as “no effect”.

With `Cc1c2oc3c(C)ccc(C(=O)N[C@@H]4C(=O)N[C@H](C(C)C)C(=O)N5CCC[C@H]5C(=O)N(C)CC(=O)N(C)[C@@H](C(C)C)C(=O)O[C@@H]4C)c3nc-2c(C(=O)N[C@@H]2C(=O)N[C@H](C(C)C)C(=O)N3CCC[C@H]3C(=O)N(C)CC(=O)N(C)[C@@H](C(C)C)C(=O)O[C@@H]2C)c(N)c1=O` [Actinomycin D, actinomycin D] (I: T[dV]P[Sar][NMeV] / II: T[dV]P[Sar][NMeV]; ester I:1-I:C, II:1-II:C; linker I:N-II:N via Actinocin(9to1)) the “Induction … (in words)” value [1] was “able to induce supernumerary HCs” and the “Concentration inducing maximum supernumerary HCs differentiation” value [1] was 0.0001 :M.

In the case of `OC[C@H]1O[C@@H](n2cnc3cc(Cl)c(Cl)cc32)[C@H](O)[C@@H]1O` [DRB, 6-dichloro-1-beta-D-ribobenzimidazole], the “Induction … (in words)” value [1] is reported as “able to induce supernumerary HCs” and the “Concentration inducing maximum supernumerary HCs differentiation” value [1] is reported as 0.01 :M.

For `CC(C)[C@H](CO)Nc1nc(Nc2cc(N)cc(Cl)c2)c2ncn(C(C)C)c2n1` [aminopurvalanol], the “Concentration inducing maximum supernumerary HCs differentiation” value [1] was 5 :M.

For `O=C1Cc2c([nH]c3ccc([N+](=O)[O-])cc23)-c2ccccc2N1` [alsterpaullone], the “Induction … (in words)” value [1] was “induced the appearance of supernumerary HCs” and the “Concentration inducing maximum supernumerary HCs differentiation” value [1] was 5 :M.

For `Cn1cnc2c(NCc3ccccc3)nc(NCCO)nc21` [olomoucine], the “Concentration inducing maximum supernumerary HCs differentiation” value [1] was 30 :M.

With `CC(C)[C@H](CO)Nc1nc(N(C)c2cc(N)cc(Cl)c2)c2ncn(C(C)C)c2n1` [6-methyl-aminopurvalanol, N6-methyl-aminopurvalanol] the “Induction … (in words)” value [1] was “no effect” and the “Concentration inducing maximum supernumerary HCs differentiation” value [1] was “no effect”.
